Experiment [1] has as its system AtCESA6 (cesa6 alleles es20r1-es20r15). Briefly: Root growth of EMS-induced cesa6 mutants es20r1-es20r15 on ES20 analogs. The following applies: compared with wild-type/control plants. The format is in vivo, Arabidopsis thaliana. From the text: A subset of active ES20 analogs likely target the catalytic domain of AtCESA6. […] Since ES20 and the nine active ES20 analogs share highly similar structures, we reasoned whether these active analogs target AtCESA6 as well. We therefore examined the growth of es20r1-es20r15 plants in the presence of nine active ES20 analogs compared to wild-type plants.
(§1) To test the inhibitory effects of different chemicals on plant growth, wild-type Arabidopsis Col-0 plants were used. The seeds of plants used for growth assays or live cell imaging were sequentially sterilized with 50% bleach and 75% ethanol. […] To quantify the inhibitory effects of different ES20 active analogs on the root growth of Arabidopsis wildtype, EMS mutants, and transgenic plants expressing mutated AtCESA6 in prc1-1 background, sterilized Col-0, mutants, and transgenic plants seeds were sown on gridded Petri plates containing ½-strength MS medium supplemented with different concentrations of ES20 analogs. […] The plates were scanned using an Epson Perfection V550 scanner after 7 days of growth, and the root lengths of plants were quantified using ImageJ software. […] The Petri dishes were scanned, and hypocotyl length was measured using ImageJ. Transgenic plants expressing fluorescence-tagged PIN2, PIP2a, HDEL, VHA-a1, and GOT1p were as reported previously (Xu and Scheres, Plant Cell, 2005, 17, 525-536).

The test system of experiment [2] is AtCESA6 carrying missense mutations in prc1-1. Briefly: Root growth of transgenic plants expressing mutated AtCESA6 in prc1-1. The following applies: D562N, D564N, D785N, Q823E, R826A, W827A in prc1-1. The class given is in vivo, Arabidopsis thaliana.
Excerpt: We then examined whether transgenic plants expressing AtCESA6 with predicted missense mutations at the catalytic site in prc1-1 background would have altered sensitivity to active ES20 analogs. […] However, the responses of two transgenic lines expressing AtCESA6 carrying missense mutations outside of the catalytic site (L365F and D395N) to nine active ES20 analogs were similar to those of wild-type plants (FIG. 2B).
as §1, with “Transgenic plants expressing fluorescence-tagged PIN2, PIP2a, HDEL, VHA-a1, and GOT1p were as reported previously (Xu and Scheres, Plant Cell, 2005, 17, 525-536).” left out

The target of experiment [3] is T1, GFP-CESA6c: GFP-tagged central cytosolic domain of AtCESA6 (cellulose synthase, CESA6) with a His-SUMO tag (Arabidopsis thaliana, UniProt Q94JQ6).
T1 construct: His-SUMO; made in house; host or cells: E. coli
T1 sequence (Q94JQ6 322-868 limits assumed): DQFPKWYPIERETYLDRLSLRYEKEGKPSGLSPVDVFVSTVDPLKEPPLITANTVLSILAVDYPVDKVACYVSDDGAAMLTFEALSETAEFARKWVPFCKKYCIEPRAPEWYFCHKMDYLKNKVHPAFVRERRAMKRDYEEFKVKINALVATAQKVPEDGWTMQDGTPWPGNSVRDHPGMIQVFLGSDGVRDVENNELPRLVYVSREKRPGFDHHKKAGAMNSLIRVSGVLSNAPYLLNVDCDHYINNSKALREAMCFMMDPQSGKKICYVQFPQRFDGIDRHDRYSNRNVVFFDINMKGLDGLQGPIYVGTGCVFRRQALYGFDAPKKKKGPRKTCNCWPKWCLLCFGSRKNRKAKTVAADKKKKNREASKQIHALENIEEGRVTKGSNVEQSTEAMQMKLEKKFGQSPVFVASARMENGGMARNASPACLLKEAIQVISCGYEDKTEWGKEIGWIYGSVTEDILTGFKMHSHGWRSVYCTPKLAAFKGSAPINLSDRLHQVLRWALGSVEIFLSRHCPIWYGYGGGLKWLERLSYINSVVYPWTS
The experiment can be described thus: Microscale thermophoresis (MST) binding to purified GFP-tagged CESA6c (wild-type). The following applies: read-out: Kd, thermophoresis binding curve, GFP-CESA6c. The source says:
FIGS. 3A-3Q. […] FIG. 3A to FIG. 3G. […] FIG. 3A. Representative 5-day-old dark-grown Arabidopsis Col-0 seedlings grown on growth medium supplemented with different concentrations of ES20 or ES20-1. Scale bar: 1 cm. FIG. 3B. Quantification of hypocotyl length of 5-day-old dark-grown Arabidopsis Col-0 seedlings described in FIG. 3A. Data represent mean±SD (n=12 seedlings). FIG. 3C. Quantification of crystalline cellulose content in the hypocotyl cell walls of 7-day-old dark-grown Col-0 seedlings grown on growth medium supplemented with DMSO (0.1%), 1 μM ES20, or 1 μM ES20-1. Data represent mean±SD (n=3 biological replicates). FIG. 3D and FIG. 3E. […] FIG. 3D. Representative image of 6-day-old rice seedlings grown in sterile water supplemented with DMSO (0.1%), 20 μM ES20, or 20 μM ES20-1. Scale bar: 1 cm. FIG. 3E. Quantification of root length of rice seedlings as described in FIG. 3D. Data represent mean±SD (n=10 seedlings). FIG. 3F and FIG. 3G. […] FIG. 3F. Representative image of 6-day-old maize seedlings grown in sterile water supplemented with DMSO (0.1%), 20 μM ES20, or 20 μM ES20-1. Scale bar: 1 cm. FIG. 3G. Quantification of root length of maize seedlings as described in FIG. 3F. Data represent mean±SD (n=12 seedlings). […] FIG. 3H. Representative immunoblot from a DARTS assay of ES20-1 and YFP-AtCESA6. FIG. 3I. Quantitative analysis of the band intensity of YFP-AtCESA6 and SEC12 in ES20-1-treated samples divided by that of DMSO-treated samples in the DARTS assay described in FIG. 3H. Data represent mean±SD (n=6 biological replicates). FIGS. 3J-3N. […] FIG. 3J. Coomassie blue staining of purified GFP-tagged CESA6c with a His-SUMO tag (lane 2). FIGS. 3K, 3L, 3M, 3N. […] FIG. 3O. Coomassie blue staining of purified GFP-tagged CESA6c^P595S with a His-SUMO tag (lane 2). FIG. 3P and FIG. 3Q. […] Statistically significant differences in FIG. 3B were determined using one-way ANOVA followed by Tukey's multiple comparisons test. Lower-case letters represent ANOVA results for plants grown on medium with 0.1% DMSO, different concentrations of ES20 or ES20-1. […]

For experiment [4], the target named is T2, GFP-CESA6c (central cytosolic domain of AtCESA6) (Arabidopsis thaliana, UniProt Q94JQ6).
T2 construct: made in house; host or cells: E. coli
The experiment can be described thus: MST assay with GFP-CESA6c. The class given is binding. The following applies: for interaction with CESA6c: 100 nM GFP-CESA6c. From the text: To obtain the central cytosolic domain of AtCESA6 for the MST assay, we inserted the GFP coding sequence into the SacI and PstI restriction enzyme sites of the pRSF-Duet-1 vector (Huang et al., 2020). The GFP coding sequence was amplified from the pUBN-GFP-DEST vector. The sequence encoding the central cytosolic domain of CESA6 (CESA6c) was amplified from Col-0 cDNA and fused with GFP at the C-terminus. CESA6c construct was used as a template for creating CESA6c^P595S construct by site-directed mutagenesis. Protein purification was performed as previously described (Huang et al., 2020).
MST assays were carried out using a Monolith NT.115 (NanoTemper) machine at the Chemical Genomics Facility at Purdue University. […] The ES20-1 was dissolved in DMSO, and the final concentration of DMSO was 5% (vol/vol). MST standard capillaries were used to load the samples into the MST instrument. Triplicate reactions were performed for each test. The MST data were processed using MO. Affinity Analysis Version 2.3 software.

In experiment [5] the target is T3, GFP-CESA6c^P595S: GFP-tagged central cytoplasmic domain of AtCESA6 (cellulose synthase, CESA6) carrying missense mutation P595S, with a His-SUMO tag (Arabidopsis thaliana, UniProt Q94JQ6, P595S).
T3 construct: We purified AtCESA6 central cytoplasmic domain carrying missense mutation P595S (CESA6c^P595S); His-SUMO; made in house; host or cells: E. coli
Briefly: Microscale thermophoresis (MST) binding to purified GFP-tagged CESA6c^P595S (missense mutant). The source says: FIGS. 3A-3Q. […] FIG. 3A to FIG. 3G. […] FIG. 3A. Representative 5-day-old dark-grown Arabidopsis Col-0 seedlings grown on growth medium supplemented with different concentrations of ES20 or ES20-1. Scale bar: 1 cm. FIG. 3B. Quantification of hypocotyl length of 5-day-old dark-grown Arabidopsis Col-0 seedlings described in FIG. 3A. Data represent mean±SD (n=12 seedlings). FIG. 3C. Quantification of crystalline cellulose content in the hypocotyl cell walls of 7-day-old dark-grown Col-0 seedlings grown on growth medium supplemented with DMSO (0.1%), 1 μM ES20, or 1 μM ES20-1. Data represent mean±SD (n=3 biological replicates). FIG. 3D and FIG. 3E. […] FIG. 3D. Representative image of 6-day-old rice seedlings grown in sterile water supplemented with DMSO (0.1%), 20 μM ES20, or 20 μM ES20-1. Scale bar: 1 cm. FIG. 3E. Quantification of root length of rice seedlings as described in FIG. 3D. Data represent mean±SD (n=10 seedlings). FIG. 3F and FIG. 3G. […] FIG. 3F. […] Quantification of root length of maize seedlings as described in FIG. 3F. […] Quantitative analysis of the band intensity of YFP-AtCESA6 and SEC12 in ES20-1-treated samples divided by that of DMSO-treated samples in the DARTS assay described in FIG. 3H. […] Statistically significant differences in FIG. 3B were determined using one-way ANOVA followed by Tukey's multiple comparisons test. […]

The structures appear in SMILES notation. Where two headings read alike, the source gives them in different places.

`Cc1cccnc1NC(=S)NC(=O)c1cccc([N+](=O)[O-])c1C` [ES20-9]: in experiment [1], the “sensitivity of es20r1-es20r15 mutants in growth” value is 14 out of 15 mutants except es20r13 show reduced sensitivity. In addition, the “sensitivity of transgenic lines with AtCESA6 catalytic site mutations” value in experiment [2] is on record as “Reduced sensitivity”. The Kd in experiment [3] (FIG. 3N, GFP-CESA6c purified from E. coli, pH 7.5, 10 mM MgCl2, 0.05% Tween 20, triplicate) was 5.1 ± 4.8 µM. Also, in experiment [4], the “interaction with CESA6c” value was “also interacts”. Moreover, the “relative binding affinity to CESA6c” value in experiment [4] (MST) is “slightly lower than ES20-1”.

With `COc1ccc(C(=O)NC(=S)NNC(=O)c2ccccc2C)cc1` [ES20], the dissociation constant (Kd) in experiment [3] (FIGS. 3K-3M, 100 nM GFP-CESA6c purified from E. coli, pH 7.5, 10 mM MgCl2, 0.05% Tween 20, 5% DMSO, triplicate) is 9.7 ± 3.3 µM; in experiment [5], 24.5 ± 26.9 µM.

Turning to `CC1(C)S[C@@H]2[C@H](NC(=O)[C@H](N)c3ccccc3)C(=O)N2[C@H]1C(=O)O` [ampicillin, reference compound], the “interaction with CESA6c” value in experiment [4] is “did not interact”.

These data come from patent publication US11938121B2, “Treatment of infections and biofilm formation using a cellulose synthase inhibitor” (Purdue Research Foundation, priority 2020, dated 2024).
